Laboratory results reported in patent US7427627B2, “N-(4-(4-methylthiazol-5-yl) pyrimidin-2-yl)-N-phenylamines as antiproliferative compounds” (Cyclacel Limited, priority 2001, dated 2008).
Read-outs that look alike come from different tables or passages of the source.

Key:
[1] = molecular target: stress-activated protein kinase 2a (Homo sapiens, UniProt Q16539); experiment: Kinase specificity assay SAPK2a; type: biochemical; conditions: Table 2
[2] = molecular target: extracellular-signal-regulated kinase 2 (Homo sapiens, UniProt P28482); experiment: Kinase specificity assay ERK-2; type: biochemical; conditions: Table 2
[3] = molecular target: glycogen synthase kinase 3β (Homo sapiens, UniProt P49841); experiment: Kinase specificity assay GSK3β; type: biochemical; conditions: Table 2
protein kinase C α = molecular target: T1, protein kinase C α (Homo sapiens, UniProt P17252); experiment: Kinase specificity assay PKCα; type: biochemical; conditions: Table 2
T1 construct: His6
Protocol: PKCα kinase activity may be measured by the incorporation of radio-labeled phosphate in Histone 3, as described. The reaction mixture (total volume 65 μl) consist of 50 mM Tris-HCl, 1 mM Calcium acetate, 3 mM DTT, 0.03 mg/ml Phosphatidylserine, 2.4 μg/ml PMA, 0.04% NP40, 12 mM Mg/Cl, purified PKCα-100 ng, Histone 3, 0.2 mg/ml, 100 μM ATP, 0.2 μCi [γ-^32P]-ATP. The reaction is carried over 15 min at 37° C. in microplate shaker and is stopped by adding 10 μl 75 mM orthophosphoric acid and placing the plate on ice. 50 μl of the reaction mixture is transferred onto P81 filterplate and after washing off the free radioactive phosphate (3 times with 200 μl 75 mM orthophosphoric acid per well) 50 μl of scintillation liquid (Microscint 40) were added to each well and the radioactivity is measured on Scintillation counter (Topcount, HP).

[4] = molecular target: p70 ribosomal protein S6 kinase (Homo sapiens, UniProt P23443); experiment: Kinase specificity assay p70-S6K; type: biochemical; conditions: Table 2
A549 = experiment: 72-h MTT cytotoxicity assay, A549; type: cell-based, human; conditions: Homo sapiens
[5] = molecular target: calmodulin-dependent kinase II; conditions: read-out: Kinase specificity IC50 Cam-KII; Table 2
protein kinase B = protein kinase B (Homo sapiens, UniProt P31749); experiment: Kinase specificity assay Akt/PKB; type: biochemical; conditions: Table 2
CDK1-cyclin B1 complex = molecular target: T2, CDK1-cyclin B1 complex (Homo sapiens, UniProt P06493); experiment: Kinase specificity assay CDK1/B1; type: biochemical; conditions: Table 2
T2 construct: His6

HT29 = experiment: 72-h MTT cytotoxicity assay, HT29; type: cell-based; conditions: Homo sapiens
Method in brief: (§1)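 Read-out is MTT formazan solubilised in DMSO after a 4 h dark incubation at 37° C. This follows 72 h at 37° C of compound exposure, given as a 1/3 dilution series in triplicate to cells plated overnight according to doubling time.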

[6] = molecular target: CDK7-cyclin H-MAT 1 complex (Homo sapiens, UniProt P50613); experiment: Kinase specificity assay CDK7/H; type: biochemical; conditions: Table 2
Saos-2 = experiment: 72-h MTT cytotoxicity assay, Saos-2; type: cell-based; conditions: Homo sapiens
Method in brief: as §1

Ableson tyrosine kinase = Ableson tyrosine kinase (Homo sapiens, UniProt P00519); experiment: Kinase specificity assay Abl; type: biochemical; conditions: Table 2
polo-like kinase 1 = polo-like kinase 1 (Homo sapiens, UniProt P53350); experiment: Kinase specificity assay Plk1; type: biochemical; conditions: Table 2
Messa = experiment: 72-h MTT assay, Messa; type: cell-based; conditions: Homo sapiens, MES-SA, read-out: 72-h MTT IC50 Messa, Table 3, Uterine
Protocol: (§2) The compounds from the examples above were subjected to a standard cellular proliferation assay using human tumour cell lines obtained from the ATCC (American Type Culture Collection, 10801 University Boulevard, Manessas, Va. 20110-2209, USA). Standard 72-h MTT (thiazolyl blue; 3-[4,5-dimethylthiazol-2-yl]-2,5-diphenyltetrazolium bromide) assays were performed (Haselsberger, K.; Peterson, D. C.; Thomas, D. G.; Darling, J. L. Anti Cancer Drugs 1996, 7, 331-8; Loveland, B. E.; Johns, T. G.; Mackay, I. R.; Vaillant, F.; Wang, Z. X.; Hertzog, P. J. Biochemistry International 1992, 27, 501-10). In short: cells were seeded into 96-well plates according to doubling time and incubated overnight at 37° C. Test compounds were made up in DMSO and a 1/3 dilution series prepared in 100 μL cell media, added to cells (in triplicates) and incubated for 72 ho at 37° C. MTT was made up as a stock of 5 mg/mL in cell media and filter-sterilised. Media was removed from cells followed by a wash with 200 μL PBS. MTT solution was then added at 20 μL per well and incubated in the dark at 37° C. for 4 h. MTT solution was removed and cells again washed with 200 μL PBS. MTT dye was solubilised with 200 μL per well of DMSO with agitation.

Lovo = experiment: 72-h MTT assay, Lovo; type: cell-based; conditions: Homo sapiens, read-out: 72-h MTT IC50 Lovo, Table 3, Colon
Protocol: as §2

Messa-Dx5 = experiment: 72-h MTT assay, Messa-Dx5; type: cell-based; conditions: Homo sapiens, MES-SA/Dx5, 72 h, read-out: 72-h MTT IC50 Messa-Dx5; Table 3; Uterine
Protocol: as §2

WI38 = experiment: 72-h MTT assay, WI38; type: cell-based; conditions: Homo sapiens, WI-38, 72 h, read-out: 72-h MTT IC50 WI38; Table 3; Foetal lung (non-transformed)
Protocol: as §2

SJSA-1 = experiment: 72-h MTT assay, SJSA-1; type: cell-based; conditions: Homo sapiens, SJSA-1, 72 h, read-out: 72-h MTT IC50 SJSA-1; Table 3; Osteogenic sarcoma
Protocol: as §2

CCRF-CEM = experiment: 72-h MTT assay, CCRF-CEM; type: cell-based; conditions: Homo sapiens, read-out: 72-h MTT IC50 CCRF-CEM, Table 3, Leukaemia
Protocol: as §2

DU-145 = experiment: 72-h MTT assay, DU-145; type: cell-based; conditions: Homo sapiens, DU-145, 72 h, read-out: 72-h MTT IC50 DU-145; Table 3; Prostate
Protocol: as §2

Hs27 = experiment: 72-h MTT assay, Hs27; type: cell-based; conditions: Homo sapiens, HS27, 72 h, read-out: 72-h MTT IC50 Hs27; Table 3; Foreskin fibroblast (non-transformed)
Protocol: as §2

AGS = experiment: 72-h MTT assay, AGS; type: cell-based; conditions: Homo sapiens, read-out: 72-h MTT IC50 AGS, Table 3, Gastric adenocarcinoma
Protocol: as §2

Hacat = experiment: 72-h MTT assay, Hacat; type: cell-based; conditions: Homo sapiens, read-out: 72-h MTT IC50 Hacat, Table 3, Skin keratinocytes
Protocol: as §2

SKUT-1 = experiment: 72-h MTT assay, SKUT-1; type: cell-based; conditions: Homo sapiens, SK-UT-1, 72 h, read-out: 72-h MTT IC50 SKUT-1; Table 3; Leiomyosarcoma
Protocol: as §2

MCF-7 = experiment: 72-h MTT assay, MCF-7; type: cell-based; conditions: Homo sapiens, MCF7, 72 h, read-out: 72-h MTT IC50 MCF-7; Table 3; Breast
Protocol: as §2

tumour cells = experiment: 72-h MTT assay, mean over tumour cell lines; type: cell-based; conditions: Homo sapiens, Table 3
Protocol: as §2

IMR-90 = experiment: 72-h MTT assay, IMR-90; type: cell-based; conditions: Homo sapiens, IMR-90, 72 h, read-out: 72-h MTT IC50 IMR-90; Table 3; Foetal lung fibroblast (non-transformed)
Protocol: as §2

K562 = experiment: 72-h MTT assay, K562; type: cell-based; conditions: Homo sapiens, K562, 72 h, read-out: 72-h MTT IC50 K562; Table 3; Chronic myelogenous leukaemia
Protocol: as §2

CDK2/cyclin E = molecular target: T3, CDK2/cyclin E (Homo sapiens, UniProt P24941); experiment: Kinase assay CDK2/cyclin E; type: biochemical; conditions: Table 1; read-out: Kinase inhibition, IC50 (μM) CDK2/E
T3 construct: His6

nci-H460 = experiment: 72-h MTT assay, nci-H460; type: cell-based; conditions: Homo sapiens, NCI-H460, 72 h, read-out: 72-h MTT IC50 nci-H460; Table 3; Lung
Protocol: as §2

H1299 = experiment: 72-h MTT assay, H1299; type: cell-based; conditions: Homo sapiens, NCI-H1299, 72 h, read-out: 72-h MTT IC50 H1299; Table 3; Lung
Protocol: as §2

CDK4/cyclin D1 = CDK4/cyclin D1 (Homo sapiens, UniProt P11802); experiment: Kinase assay CDK4/cyclin D1;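 further: Enzyme: His6-tagged recombinant human CDK4 produced in baculovirus-infected Sf9 insect cells and purified by metal-chelate chromatography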
HCT-116 = experiment: 72-h MTT assay, HCT-116; type: cell-based; conditions: Homo sapiens, HCT-116, 72 h, read-out: 72-h MTT IC50 HCT-116; Table 3; Colon
Protocol: as §2

U2OS = experiment: 72-h MTT assay, U2OS; type: cell-based; conditions: Homo sapiens, read-out: 72-h MTT IC50 U2OS, Table 3, Bone osteosarcoma
Protocol: as §2

HL60 = experiment: 72-h MTT assay, HL60; type: cell-based; conditions: Homo sapiens, HL-60, 72 h, read-out: 72-h MTT IC50 HL60; Table 3; Promyelocytic leukaemia
Protocol: as §2

Hela = experiment: 72-h MTT assay, Hela; type: cell-based; conditions: Homo sapiens, read-out: 72-h MTT IC50 Hela, Table 3, Cervix
Protocol: as §2

SKUT-1B = experiment: 72-h MTT assay, SKUT-1B; type: cell-based; conditions: Homo sapiens, Skut1B, read-out: 72-h MTT IC50 SKUT-1B, Table 3, Leiomyosarcoma
Protocol: as §2

SK-N-MC = experiment: 72-h MTT assay, SK-N-MC; type: cell-based; conditions: Homo sapiens, read-out: 72-h MTT IC50 SK-N-MC, Table 3, Neuroblastoma
Protocol: as §2

[7] = HT-29, read-out: 72-h MTT in vitro IC50 (μM) HT29, Table 1, 72 h
[8] = SAOS-2, read-out: 72-h MTT in vitro IC50 (μM) Saos-2, Table 1, 72 h

Ableson tyrosine kinase, sequence (P00519 whole entry): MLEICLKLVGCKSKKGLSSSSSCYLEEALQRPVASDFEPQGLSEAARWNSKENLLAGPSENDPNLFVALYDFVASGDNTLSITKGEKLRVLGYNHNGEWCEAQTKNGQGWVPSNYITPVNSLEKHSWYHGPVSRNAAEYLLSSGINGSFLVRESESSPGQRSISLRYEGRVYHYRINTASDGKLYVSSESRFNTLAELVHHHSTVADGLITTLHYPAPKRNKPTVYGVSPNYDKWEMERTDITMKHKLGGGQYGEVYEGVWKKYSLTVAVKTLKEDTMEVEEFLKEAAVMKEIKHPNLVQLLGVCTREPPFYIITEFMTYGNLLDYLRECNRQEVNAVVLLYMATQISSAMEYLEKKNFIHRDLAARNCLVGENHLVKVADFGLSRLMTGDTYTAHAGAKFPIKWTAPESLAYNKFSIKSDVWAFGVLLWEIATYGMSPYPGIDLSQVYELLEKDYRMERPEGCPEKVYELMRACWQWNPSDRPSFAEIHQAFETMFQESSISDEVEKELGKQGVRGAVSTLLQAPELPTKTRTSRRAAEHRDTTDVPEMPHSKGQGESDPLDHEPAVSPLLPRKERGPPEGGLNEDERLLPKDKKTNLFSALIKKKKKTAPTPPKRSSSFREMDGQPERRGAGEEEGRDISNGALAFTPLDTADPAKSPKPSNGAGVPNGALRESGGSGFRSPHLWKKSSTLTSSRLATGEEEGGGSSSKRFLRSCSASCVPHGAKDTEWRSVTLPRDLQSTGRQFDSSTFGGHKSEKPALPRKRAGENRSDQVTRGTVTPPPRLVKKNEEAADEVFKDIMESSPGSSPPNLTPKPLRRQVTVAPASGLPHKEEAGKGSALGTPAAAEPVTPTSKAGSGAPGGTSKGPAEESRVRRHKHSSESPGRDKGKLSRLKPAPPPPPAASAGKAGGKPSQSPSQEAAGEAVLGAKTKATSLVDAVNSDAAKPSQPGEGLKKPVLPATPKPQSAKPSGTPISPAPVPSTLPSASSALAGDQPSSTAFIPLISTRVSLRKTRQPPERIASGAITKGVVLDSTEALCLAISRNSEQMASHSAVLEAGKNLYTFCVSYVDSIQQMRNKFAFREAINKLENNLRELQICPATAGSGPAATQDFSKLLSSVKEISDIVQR
extracellular-signal-regulated kinase 2, sequence (P28482 whole entry): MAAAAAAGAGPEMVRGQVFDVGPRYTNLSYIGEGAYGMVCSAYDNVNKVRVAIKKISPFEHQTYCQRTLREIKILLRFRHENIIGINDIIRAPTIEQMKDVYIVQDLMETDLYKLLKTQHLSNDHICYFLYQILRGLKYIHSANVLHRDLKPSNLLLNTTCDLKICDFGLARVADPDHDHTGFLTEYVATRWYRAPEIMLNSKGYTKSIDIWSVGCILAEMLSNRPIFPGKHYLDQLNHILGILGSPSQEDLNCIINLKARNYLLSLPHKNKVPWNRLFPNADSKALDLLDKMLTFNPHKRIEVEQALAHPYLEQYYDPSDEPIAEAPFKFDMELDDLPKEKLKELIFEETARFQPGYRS
polo-like kinase 1, sequence (P53350 whole entry): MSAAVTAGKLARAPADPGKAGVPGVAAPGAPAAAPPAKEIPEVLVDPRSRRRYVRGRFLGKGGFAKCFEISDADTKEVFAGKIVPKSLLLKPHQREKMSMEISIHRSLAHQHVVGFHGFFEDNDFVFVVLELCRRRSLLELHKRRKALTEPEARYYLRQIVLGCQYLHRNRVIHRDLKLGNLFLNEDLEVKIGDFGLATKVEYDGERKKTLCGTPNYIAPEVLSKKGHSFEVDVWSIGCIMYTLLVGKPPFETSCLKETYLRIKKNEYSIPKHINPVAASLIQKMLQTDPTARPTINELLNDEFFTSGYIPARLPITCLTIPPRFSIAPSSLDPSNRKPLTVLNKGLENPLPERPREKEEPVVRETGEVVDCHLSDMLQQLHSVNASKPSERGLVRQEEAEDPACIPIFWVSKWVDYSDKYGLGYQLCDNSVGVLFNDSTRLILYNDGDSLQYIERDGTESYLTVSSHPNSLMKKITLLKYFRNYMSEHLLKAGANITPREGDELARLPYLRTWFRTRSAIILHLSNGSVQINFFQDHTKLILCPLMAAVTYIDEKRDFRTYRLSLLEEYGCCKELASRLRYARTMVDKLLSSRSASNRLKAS
CDK4/cyclin D1, sequence (P11802 whole entry): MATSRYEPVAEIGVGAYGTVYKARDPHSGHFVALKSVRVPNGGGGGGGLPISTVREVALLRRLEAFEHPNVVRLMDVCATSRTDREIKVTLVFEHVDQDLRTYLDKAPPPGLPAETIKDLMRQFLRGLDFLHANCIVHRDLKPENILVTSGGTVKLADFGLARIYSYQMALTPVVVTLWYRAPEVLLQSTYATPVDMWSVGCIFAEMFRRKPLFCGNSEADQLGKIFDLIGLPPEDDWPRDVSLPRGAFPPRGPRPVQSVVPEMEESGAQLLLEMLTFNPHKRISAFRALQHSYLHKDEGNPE
CDK4/cyclin D1, sequence (P24385 whole entry partner): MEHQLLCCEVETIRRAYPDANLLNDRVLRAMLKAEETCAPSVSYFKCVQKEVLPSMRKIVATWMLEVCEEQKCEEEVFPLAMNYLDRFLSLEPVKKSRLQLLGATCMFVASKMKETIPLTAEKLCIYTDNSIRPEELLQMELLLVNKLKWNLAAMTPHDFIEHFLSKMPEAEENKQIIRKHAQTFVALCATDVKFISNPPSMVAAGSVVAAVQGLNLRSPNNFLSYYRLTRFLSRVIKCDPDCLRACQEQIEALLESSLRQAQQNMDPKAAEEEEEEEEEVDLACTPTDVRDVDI
T2 sequence (P06493 whole entry): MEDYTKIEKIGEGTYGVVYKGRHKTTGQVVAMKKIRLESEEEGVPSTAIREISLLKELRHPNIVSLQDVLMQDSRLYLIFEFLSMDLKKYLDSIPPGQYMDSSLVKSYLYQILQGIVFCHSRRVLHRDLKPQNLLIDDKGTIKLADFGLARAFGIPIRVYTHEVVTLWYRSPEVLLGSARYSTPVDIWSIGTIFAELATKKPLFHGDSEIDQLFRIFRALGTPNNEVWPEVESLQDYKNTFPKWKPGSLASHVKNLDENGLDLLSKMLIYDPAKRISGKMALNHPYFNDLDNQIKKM
T2 sequence (P14635 whole entry partner): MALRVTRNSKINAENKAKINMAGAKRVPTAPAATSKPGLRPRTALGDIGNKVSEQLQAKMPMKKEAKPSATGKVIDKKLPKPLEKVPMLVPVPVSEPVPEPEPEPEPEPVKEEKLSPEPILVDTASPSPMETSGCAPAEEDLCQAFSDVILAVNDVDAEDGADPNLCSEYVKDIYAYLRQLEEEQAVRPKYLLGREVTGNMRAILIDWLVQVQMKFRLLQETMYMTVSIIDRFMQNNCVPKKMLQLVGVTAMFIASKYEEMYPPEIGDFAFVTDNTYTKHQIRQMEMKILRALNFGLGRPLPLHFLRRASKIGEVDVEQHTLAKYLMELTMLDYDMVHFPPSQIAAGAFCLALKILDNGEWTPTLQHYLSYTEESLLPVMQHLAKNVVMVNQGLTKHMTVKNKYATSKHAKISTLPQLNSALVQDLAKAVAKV
glycogen synthase kinase 3β, sequence (P49841 whole entry): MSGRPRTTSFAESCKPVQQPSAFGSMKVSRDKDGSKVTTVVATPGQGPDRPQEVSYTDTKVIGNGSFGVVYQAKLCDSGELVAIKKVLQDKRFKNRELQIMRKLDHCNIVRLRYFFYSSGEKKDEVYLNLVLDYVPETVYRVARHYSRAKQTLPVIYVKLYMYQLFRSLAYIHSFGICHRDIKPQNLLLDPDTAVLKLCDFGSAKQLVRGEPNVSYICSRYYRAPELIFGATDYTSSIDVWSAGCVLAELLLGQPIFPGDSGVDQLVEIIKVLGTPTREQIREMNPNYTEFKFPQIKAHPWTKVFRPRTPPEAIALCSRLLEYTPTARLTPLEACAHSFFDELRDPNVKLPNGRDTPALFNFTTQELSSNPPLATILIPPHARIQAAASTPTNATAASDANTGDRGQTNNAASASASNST
protein kinase B, sequence (P31749 whole entry): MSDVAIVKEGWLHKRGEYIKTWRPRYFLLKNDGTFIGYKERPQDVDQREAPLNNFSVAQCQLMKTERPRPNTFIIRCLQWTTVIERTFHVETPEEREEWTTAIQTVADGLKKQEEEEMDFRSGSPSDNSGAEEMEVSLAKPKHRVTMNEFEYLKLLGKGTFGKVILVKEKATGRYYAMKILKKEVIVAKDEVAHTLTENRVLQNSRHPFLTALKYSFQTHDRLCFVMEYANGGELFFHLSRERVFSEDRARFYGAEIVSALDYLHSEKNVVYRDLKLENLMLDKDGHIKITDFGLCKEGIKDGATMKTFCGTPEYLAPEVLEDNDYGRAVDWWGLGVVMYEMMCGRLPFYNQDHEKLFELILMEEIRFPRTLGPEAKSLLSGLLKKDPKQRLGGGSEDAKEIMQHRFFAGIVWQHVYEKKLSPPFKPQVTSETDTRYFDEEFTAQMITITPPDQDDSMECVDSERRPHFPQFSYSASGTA

Cc1nc(C)c(-c2ccnc(Nc3ccc(N(C)C)c([N+](=O)[O-])c3)n2)s1 [Compound 25, N^4-[4-(2,4-Dimethyl-thiazol-5-yl)-pyrimidin-2-yl-]-N^1,N^1-dimethyl-2-nitro-benzene-1,4-diamine]
IC50 [1]: > 100000 nM | IC50 [2]: > 100000 nM | IC50 [3]: 900 nM | IC50 (protein kinase C α): > 100000 nM | IC50 [4]: 25000 nM | IC50 (A549; A549, 72 h, read-out: 72-h MTT in vitro IC50 (μM) A549): 0.43 µM | IC50 [5]: > 100000 nM | IC50 (protein kinase B): 61000 nM | IC50 (CDK1-cyclin B1 complex): 120 nM | IC50 (HT29; [7]): 0.3 µM | IC50 [6]: 1300 nM | IC50 (Saos-2; [8]): 0.35 µM | IC50 (Ableson tyrosine kinase): 9900 nM | IC50 (polo-like kinase 1): > 100000 nM

Cc1nc(N)sc1-c1ccnc(Nc2cccc(I)c2)n1 [Compound 10, [4-(2-Amino-4-methyl-thiazol-5-yl)-pyrimidin-2-yl]-(3-iodo-phenyl)-amine]
IC50 (Messa): 110 nM | IC50 (Lovo): 130 nM | IC50 (Messa-Dx5): 130 nM | IC50 (WI38): > 5000 nM | IC50 (SJSA-1): 850 nM | IC50 (A549; A549, 72 h, read-out: 72-h MTT IC50 A549, Table 3, Lung): 0.6 µM | IC50 (A549; A549, read-out: 72-h MTT in vitro IC50 (μM) A549, Table 1, 72 h): 0.29 µM | IC50 (CCRF-CEM): 260 nM | IC50 (DU-145): 750 nM | IC50 (Hs27): > 5000 nM | IC50 (AGS): 300 nM | IC50 (Hacat): 170 nM | IC50 (HT29; HT-29, 72 h, read-out: 72-h MTT IC50 HT29, Table 3, Colon): 0.1 µM | IC50 (HT29; [7]): 0.51 µM | IC50 (SKUT-1): 300 nM | IC50 (MCF-7): 190 nM | IC50 (tumour cells): 280 nM | IC50 (IMR-90): > 5000 nM | IC50 (K562): 150 nM | IC50 (CDK2/cyclin E): 0.05 µM | IC50 (nci-H460): 180 nM | IC50 (H1299): 270 nM | IC50 (CDK4/cyclin D1): 240 nM | IC50 (HCT-116): 280 nM | IC50 (Saos-2; SAOS-2, 72 h, read-out: 72-h MTT IC50 Saos-2, Table 3, Bone osteosarcoma): 0.43 µM | IC50 (Saos-2; [8]): 0.58 µM | IC50 (U2OS): 500 nM | IC50 (HL60): 70 nM | IC50 (Hela): 140 nM | IC50 (SKUT-1B): 40 nM | IC50 (SK-N-MC): 280 nM
